Laboratory results taken from US8580794B2 (AbbVie Inc., priority 2009, dated 2013).

Target: GST-Bc1-2 (Homo sapiens, UniProt P10415)
Experiment: Time Resolved-Fluorescence Resonance Energy Transfer (TR-FRET) Bcl-2 binding assay with F-Bak peptide probe
Conditions: GST-Bcl-2 1 nM, F-Bak probe 100 nM, Tb-anti-GST 1 nM; '<' = below limit of detection; read-out: TR-FRET Bcl-2 Binding Ki

Sequence of GST-Bc1-2 (P10415 whole entry): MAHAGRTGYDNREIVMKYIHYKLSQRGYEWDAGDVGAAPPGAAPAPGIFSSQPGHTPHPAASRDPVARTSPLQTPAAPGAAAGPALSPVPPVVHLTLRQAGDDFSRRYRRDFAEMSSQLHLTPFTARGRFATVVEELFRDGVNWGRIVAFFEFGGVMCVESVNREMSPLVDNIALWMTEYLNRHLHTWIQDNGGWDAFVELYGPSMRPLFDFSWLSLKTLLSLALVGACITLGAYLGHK

Row | SMILES | Ki
1 | CC1(C)CCC(CN2CCN(c3ccc(C(=O)NS(=O)(=O)c4ccc(OCC5CN(C6CC6)CCO5)c([N+](=O)[O-])c4)c(Oc4cnc5[nH]ccc5c4)c3)CC2)=C(c2ccc(Cl)cc2)C1 (stereo not shown) [Example 354, 4-(4-{[2-(4-chlorophenyl)-4,4-dimethylcyclohex-1-en-1-yl]methyl}piperazin-1-yl)-N-({4-[(4-cyclopropylmorpholin-2-yl)methoxy]-3-nitrophenyl}sulfonyl)-2-(1H-pyrrolo[2,3-b]pyridin-5-yloxy)benzamide] | 0.01 nM
2 | CC1(C)CCC(CN2CCN(c3ccc(C(=O)NS(=O)(=O)c4ccc(OCC5(F)CCN(C6COC6)CC5)c(C#N)c4)c(Oc4cnc5[nH]ccc5c4)c3)CC2)=C(c2ccc(Cl)cc2)C1 [Example 357, 4-(4-{[2-(4-chlorophenyl)-4,4-dimethylcyclohex-1-en-1-yl]methyl}piperazin-1-yl)-N-[(3-cyano-4-{[4-fluoro-1-(oxetan-3-yl)piperidin-4-yl]methoxy}phenyl)sulfonyl]-2-(1H-pyrrolo[2,3-b]pyridin-5-yloxy)benzamide] | < 0.01 nM
3 | COCC1(C)CCC(c2ccc(Cl)cc2)=C(CN2CCN(c3ccc(C(=O)NS(=O)(=O)c4ccc(NCC5CCOCC5)c([N+](=O)[O-])c4)c(Oc4cnc5[nH]ccc5c4)c3)CC2)C1 (stereo not shown) [Example 360, 4-(4-{[2-(4-chlorophenyl)-5-(methoxymethyl)-5-methylcyclohex-1-en-1-yl]methyl}piperazin-1-yl)-N-({3-nitro-4-[(tetrahydro-2H-pyran-4-ylmethyl)amino]phenyl}sulfonyl)-2-(1H-pyrrolo[2,3-b]pyridin-5-yloxy)benzamide] | < 0.01 nM
4 | CC1(C)CCC(CN2CCN(c3ccc(C(=O)NS(=O)(=O)c4ccc(NC[C@H]5CN(C6COC6)CCO5)c([N+](=O)[O-])c4)c(Oc4cnc5[nH]ccc5c4)c3)CC2)=C(c2ccc(Cl)cc2)C1 [Example 361, 4-(4-{[2-(4-chlorophenyl)-4,4-dimethylcyclohex-1-en-1-yl]methyl}piperazin-1-yl)-N-{[3-nitro-4-({[(2S)-4-(oxetan-3-yl)morpholin-2-yl]methyl}amino)phenyl]sulfonyl}-2-(1H-pyrrolo[2,3-b]pyridin-5-yloxy)benzamide] | < 0.01 nM
5 | CC1(C)CCC(CN2CCN(c3ccc(C(=O)NS(=O)(=O)c4ccc(OCC5(F)CCC(N(CCC#N)C6CC6)CC5)c([N+](=O)[O-])c4)c(Oc4cnc5[nH]ccc5c4)c3)CC2)=C(c2ccc(Cl)cc2)C1 (stereo not shown) [Example 363, 4-(4-{[2-(4-chlorophenyl)-4,4-dimethylcyclohex-1-en-1-yl]methyl}piperazin-1-yl)-N-{[4-({4-[(2-cyanoethyl)(cyclopropyl)amino]-1-fluorocyclohexyl}methoxy)-3-nitrophenyl]sulfonyl}-2-(1H-pyrrolo[2,3-b]pyridin-5-yloxy)benzamide] | 0.017 nM
6 | CC1(C)CCC(CN2CCN(c3ccc(C(=O)NS(=O)(=O)c4cnc(NCC5CCOCC5)c([N+](=O)[O-])c4)c(Oc4cnc5[nH]ccc5c4)c3)CC2)=C(c2ccc(Cl)cc2)C1 [Example 364, 4-(4-{[2-(4-chlorophenyl)-4,4-dimethylcyclohex-1-en-1-yl]methyl}piperazin-1-yl)-N-({5-nitro-6-[(tetrahydro-2H-pyran-4-ylmethyl)amino]pyridin-3-yl}sulfonyl)-2-(1H-pyrrolo[2,3-b]pyridin-5-yloxy)benzamide] | < 0.01 nM
7 | CC1(C)CCC(CN2CCN(c3ccc(C(=O)NS(=O)(=O)c4ccc(NCC5CCC6(CC5)COC6)c([N+](=O)[O-])c4)c(Oc4cnc5[nH]ccc5c4)c3)CC2)=C(c2ccc(Cl)cc2)C1 [Example 365, 4-(4-{[2-(4-chlorophenyl)-4,4-dimethylcyclohex-1-en-1-yl]methyl}piperazin-1-yl)-N-({3-nitro-4-[(2-oxaspiro[3.5]non-7-ylmethyl)amino]phenyl}sulfonyl)-2-(1H-pyrrolo[2,3-b]pyridin-5-yloxy)benzamide] | < 0.01 nM
8 | CC1(C)CCC(CN2CCN(c3ccc(C(=O)NS(=O)(=O)c4ccc(NCC5CCC(C)(C#N)CC5)c([N+](=O)[O-])c4)c(Oc4cnc5[nH]ccc5c4)c3)CC2)=C(c2ccc(Cl)cc2)C1 (stereo not shown) [Example 366, 4-(4-{[2-(4-chlorophenyl)-4,4-dimethylcyclohex-1-en-1-yl]methyl}piperazin-1-yl)-N-[(4-{[(4-cyano-4-methylcyclohexyl)methyl]amino}-3-nitrophenyl)sulfonyl]-2-(1H-pyrrolo[2,3-b]pyridin-5-yloxy)benzamide] | 0.024 nM
9 | CC1(C)CCC(CN2CCN(c3ccc(C(=O)NS(=O)(=O)c4cnc5c(c4)nnn5CC4CCOCC4)c(Oc4cnc5[nH]ccc5c4)c3)CC2)=C(c2ccc(Cl)cc2)C1 [Example 370, 4-(4-{[2-(4-chlorophenyl)-4,4-dimethylcyclohex-1-en-1-yl]methyl}piperazin-1-yl)-2-(1H-pyrrolo[2,3-b]pyridin-5-yloxy)-N-{[3-(tetrahydro-2H-pyran-4-ylmethyl)-3H-[1,2,3]triazolo[4,5-b]pyridin-6-yl]sulfonyl}benzamide] | 0.285 nM
10 | COCC1CCC(CNc2ccc(S(=O)(=O)NC(=O)c3ccc(N4CCN(CC5=C(c6ccc(Cl)cc6)CC(C)(C)CC5)CC4)cc3Oc3cnc4[nH]ccc4c3)cc2[N+](=O)[O-])CC1 (stereo not shown) [Example 374, 4-(4-{[2-(4-chlorophenyl)-4,4-dimethylcyclohex-1-en-1-yl]methyl}piperazin-1-yl)-N-{[4-({[4-(methoxymethyl)cyclohexyl]methyl}amino)-3-nitrophenyl]sulfonyl}-2-(1H-pyrrolo[2,3-b]pyridin-5-yloxy)benzamide] | < 0.001 nM
11 | CC1(C)CCC(CN2CCN(c3ccc(C(=O)NS(=O)(=O)c4cnc(OCC5CCN(c6nccs6)CC5)c(Cl)c4)c(Oc4cnc5[nH]ccc5c4)c3)CC2)=C(c2ccc(Cl)cc2)C1 [Example 375, 4-(4-{[2-(4-chlorophenyl)-4,4-dimethylcyclohex-1-en-1-yl]methyl}piperazin-1-yl)-N-[(5-chloro-6-{[1-(1,3-thiazol-2-yl)piperidin-4-yl]methoxy}pyridin-3-yl)sulfonyl]-2-(1H-pyrrolo[2,3-b]pyridin-5-yloxy)benzamide] | 0.11 nM
12 | COC1(C)CCC(c2ccc(Cl)cc2)=C(CN2CCN(c3ccc(C(=O)NS(=O)(=O)c4ccc(NCC5CCOCC5)c([N+](=O)[O-])c4)c(Oc4cnc5[nH]ccc5c4)c3)CC2)C1 (stereo not shown) [Example 378, 4-(4-{[2-(4-chlorophenyl)-5-methoxy-5-methylcyclohex-1-en-1-yl]methyl}piperazin-1-yl)-N-({3-nitro-4-[(tetrahydro-2H-pyran-4-ylmethyl)amino]phenyl}sulfonyl)-2-(1H-pyrrolo[2,3-b]pyridin-5-yloxy)benzamide] | < 0.001 nM

Same assay, conditions: TR-FRET Bcl-2 Binding Ki

Row | SMILES | Ki
13 | CC1(C)CCC(CN2CCN(c3ccc(C(=O)NS(=O)(=O)c4ccc(NC(=O)N5CCOCC5)c([N+](=O)[O-])c4)c(Oc4cnc5[nH]ccc5c4)c3)CC2)=C(c2ccc(Cl)cc2)C1 [Example 373, N-(4-{[4-(4-{[2-(4-chlorophenyl)-4,4-dimethylcyclohex-1-en-1-yl]methyl}piperazin-1-yl)-2-(1H-pyrrolo[2,3-b]pyridin-5-yloxy)benzoyl]sulfamoyl}-2-nitrophenyl)morpholine-4-carboxamide] | < 0.001 nM
